A word on the IC50: it is the point on the concentration scale where inhibition reaches its midpoint.

One data set deals with Hep3B cells. The experiment in a line: Cell viability CTG assay, Hep3B. The conditions noted are these: Homo sapiens, 72 hours treatment, read-out: Hep3B Geomean absolute IC50. In kind it is cell-based. As for the experimental part: (§1) The effect of selected compounds of the invention on cell viability in various cell lines was investigated using the Cell Viability—CTG Assay Protocol below.
(§2) Hep3B, Hep3B GSPT1 G575N mut., Kelly, KG-1 and NCI-H929 cells were maintained in respective cell medium (see Table 5, below). Cells were seeded in appropriate density (see Table 6, below) onto 384-white plates (Greiner, cat. no. 781080 or 781098) and incubated overnight (Hep3B, Hep3B GSPT1 G575N, Kelly) or treated with compounds immediately after seeding (KG-1, NCI-H929). Tested compounds and DMSO (vehicle control) were dispensed to the plates using Echo 555 Liquid Handler. 12 data-point compound titration curve with concentrations ranging from 50 μM to 1 nM was used. Final DMSO concentration was kept constant at 0.25% v/v across the assay plate. After 72 h incubation (37° C., 5% CO2), cell viability was assessed using CellTiter-Glo® assay kit (Promega, cat. no G7573). Luminescence was measured using CLARIOstar multimode plate reader (BMG LABTECH). The raw data (the relative luminescence unit values, RLU) were uploaded under the relevant protocol and analysed in CDDVault data management platform. Luminescence (RLU) values were normalized to the controls, and reported absolute IC50 values were calculated in CDDVault using non-linear regression and appropriate equations.

Data set [1] concerns the target [GSPT1]-[compound of formula (I)]-[CRBN/DDB1] complex (Homo sapiens, UniProt P15170+Q96SW2). The experiment in a line: HTRF ternary complex assay (GSPT1). In kind it is binding. The conditions noted are these: read-out: HTRF ternary complex Average pEC50 by molecule (converted). In short, it runs like this:
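Compounds in dose-response were incubated 180 min at 25 °C with 48 nM GSPT1 and 52.8 nM 6×His-CRBN/DDB1, plus Streptavidin-Eu cryptate and anti-6×His-d2, in buffer with 1 mM DTT and 0.5% DMSO. TR-FRET (665/620) was normalized to DMSO background and fitted with a Hill slope model for EC50/pEC50.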
In general terms: In TR-FRET formats the signal depends on donor and acceptor labels being close together.

A further data set deals with KG-1 cells. The experiment in a line: Cell viability CTG assay, KG-1. In kind it is cell-based. Conditions: Homo sapiens, 72 hours treatment, read-out: KG-1 Geomean absolute IC50. The protocol: as §1, §2
The next data set deals with NCI-H929 cells. The experiment in a line: Cell viability CTG assay, NCI-H929. In kind it is cell-based. Conditions: Homo sapiens, 72 hours treatment, read-out: NCI-H929 Geomean absolute IC50. The protocol:
as §1, §2

The subject of the next data set is Kelly cells. The experiment in a line: Cell viability CTG assay, Kelly. It counts as cell-based. The conditions noted are these: 72 hours treatment, read-out: Kelly Geomean absolute IC50. The protocol: as §1, §2
The test system of data set [2] is Hep3B GSPT1 G575N mut. cells. The experiment in a line: Cell viability CTG assay, Hep3B GSPT1 G575N mut. In kind it is cell-based. Conditions: Homo sapiens, 72 hours treatment, read-out: Hep3B GSPT1 G575N Geomean absolute IC50. The protocol:
as §1, §2

The nature of data set [3]: Chemical stability in MV-4-11 medium. Conditions: 37° C.
Method: Next, 500 μL of each solution was transferred to the 96-deep-well plate. Three replicates for each compound were performed. Plate was afterwards incubated at 37° C. with shaking (220 rpm). 50 μL of sample were withdrawn for the each timepoint (0, 1, 3, 6, 24, 48, 72, and 168 hours) and immediately mixed with 50 μL of acetonitrile. Next, samples were centrifuged at 3900 rpm, 10° C. for 20 minutes. 40 μL of supernatant was diluted with 120 μL of acetonitrile containing internal standard (IS) (10 μM), mixed, and analyzed by LC-MS/MS.
Thermo Fisher Scientific Altis+ coupled with a Vanquish system were used for UHPLC-MS/MS analysis. Analytes were separated on a Kinetex XB-C18 2.6 μm, 50×2.1 mm column, using gradient of water with 0.1% (v/v) formic acid (solvent A) and acetonitrile with 0.1% (v/v) formic acid (solvent B): 0.0 min 5% B, 0.5 min 5% B, 1.0 min 70% B, 3.0 min 95% B, 3.5 min 95% B, 3.7 min 5% B, 5 min 5% B. The mobile phase flow rate was set to 0.3 mL/min and the column was kept in 40° C. 1 μL of samples were injected. The MS/MS analysis was performed using SRM mode in positive ionization. Source parameters were set as follow: Ion Source Type H-ESI, Spray Voltage 3800 V, Sheath Gas 50 Arb, Aux Gas 10 Arb, Sweep Gas 1 Arb, Ion Transfer Tube Temp 325° C., Vaporizer Temp 350° C., Collision Gas Pressure 1.5 mTorr, Q1/Q3 Resolution (FWHM) 0.7. Three transitions were monitored for each analyte and for the internal standard:
Quantitation was based on the peak area ratio between the test compound and IS. The amount of compound remaining in the sample was calculated as follow:
The slope of logarithmic curve of percent remaining versus time has been used for calculation of half-life (t_half). First, the elimination constant (k) was calculated using the equation:
Next, half-life (t_half) was calculated using equation:

Chain of [GSPT1]-[compound of formula (I)]-[CRBN/DDB1] complex (P15170 whole entry): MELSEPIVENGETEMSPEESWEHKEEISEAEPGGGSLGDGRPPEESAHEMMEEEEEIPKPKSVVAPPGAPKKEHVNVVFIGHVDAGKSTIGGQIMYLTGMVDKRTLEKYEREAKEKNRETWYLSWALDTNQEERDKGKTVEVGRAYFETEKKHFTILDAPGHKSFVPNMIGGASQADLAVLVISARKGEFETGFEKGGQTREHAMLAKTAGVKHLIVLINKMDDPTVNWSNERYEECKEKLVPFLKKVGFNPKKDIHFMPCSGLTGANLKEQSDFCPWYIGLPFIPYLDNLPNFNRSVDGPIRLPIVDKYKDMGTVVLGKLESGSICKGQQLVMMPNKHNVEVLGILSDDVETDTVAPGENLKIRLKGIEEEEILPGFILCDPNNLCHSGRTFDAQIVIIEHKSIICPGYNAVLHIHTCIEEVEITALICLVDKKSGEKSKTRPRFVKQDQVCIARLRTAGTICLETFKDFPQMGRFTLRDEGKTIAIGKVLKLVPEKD
Chain of [GSPT1]-[compound of formula (I)]-[CRBN/DDB1] complex (Q96SW2 whole entry): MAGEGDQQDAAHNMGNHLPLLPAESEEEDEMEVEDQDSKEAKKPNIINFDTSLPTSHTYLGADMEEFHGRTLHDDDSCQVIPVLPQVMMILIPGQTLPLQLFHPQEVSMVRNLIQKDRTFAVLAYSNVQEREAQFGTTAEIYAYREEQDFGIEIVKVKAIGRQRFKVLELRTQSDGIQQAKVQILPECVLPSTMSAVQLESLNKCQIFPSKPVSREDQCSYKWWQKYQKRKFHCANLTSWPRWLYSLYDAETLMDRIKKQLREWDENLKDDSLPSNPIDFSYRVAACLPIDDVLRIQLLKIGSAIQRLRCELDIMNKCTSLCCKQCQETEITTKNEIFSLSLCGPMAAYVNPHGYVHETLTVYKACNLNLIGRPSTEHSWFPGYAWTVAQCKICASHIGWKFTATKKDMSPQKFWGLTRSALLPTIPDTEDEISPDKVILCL
Chain of [GSPT1]-[compound of formula (I)]-[CRBN/DDB1] complex (Q16531 whole entry partner): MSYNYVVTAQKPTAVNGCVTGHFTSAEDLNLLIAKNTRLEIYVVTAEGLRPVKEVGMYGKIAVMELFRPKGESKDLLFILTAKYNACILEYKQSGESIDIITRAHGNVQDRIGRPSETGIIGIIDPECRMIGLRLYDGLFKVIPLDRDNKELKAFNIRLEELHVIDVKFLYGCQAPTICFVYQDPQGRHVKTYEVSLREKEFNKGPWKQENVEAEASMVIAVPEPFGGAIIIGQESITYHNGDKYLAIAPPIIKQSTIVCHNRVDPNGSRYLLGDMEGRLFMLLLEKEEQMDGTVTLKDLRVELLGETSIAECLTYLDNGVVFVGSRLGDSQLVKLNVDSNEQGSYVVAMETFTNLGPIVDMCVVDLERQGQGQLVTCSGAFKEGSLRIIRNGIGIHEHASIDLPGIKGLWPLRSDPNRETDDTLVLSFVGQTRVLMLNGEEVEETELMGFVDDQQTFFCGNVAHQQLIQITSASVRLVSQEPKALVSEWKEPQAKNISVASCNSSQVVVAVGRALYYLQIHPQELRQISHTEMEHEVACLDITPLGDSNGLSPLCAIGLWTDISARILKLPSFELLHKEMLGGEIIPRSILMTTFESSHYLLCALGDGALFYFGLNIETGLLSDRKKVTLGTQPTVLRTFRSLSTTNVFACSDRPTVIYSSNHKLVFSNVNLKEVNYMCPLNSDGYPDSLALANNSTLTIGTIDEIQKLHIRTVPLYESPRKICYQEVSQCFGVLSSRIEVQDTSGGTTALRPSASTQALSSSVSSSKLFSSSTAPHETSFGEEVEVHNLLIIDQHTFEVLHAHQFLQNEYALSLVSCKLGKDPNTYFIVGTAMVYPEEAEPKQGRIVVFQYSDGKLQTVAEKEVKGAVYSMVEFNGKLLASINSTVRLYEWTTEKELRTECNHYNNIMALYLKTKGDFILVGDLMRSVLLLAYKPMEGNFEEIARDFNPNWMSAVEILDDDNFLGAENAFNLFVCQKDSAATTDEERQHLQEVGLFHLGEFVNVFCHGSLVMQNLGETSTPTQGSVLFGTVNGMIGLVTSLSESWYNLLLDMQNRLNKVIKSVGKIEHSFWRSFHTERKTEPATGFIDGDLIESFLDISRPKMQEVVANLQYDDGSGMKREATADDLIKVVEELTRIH

As to `Cc1ccc(NC(=O)OCc2ccc3nc(C)c(C4CCC(=O)NC4=O)cc3c2)cc1Cl` (stereo not drawn) [Compound 5, (3-(2,6-dioxopiperidin-3-yl)-2-methylquinolin-6-yl)methyl (3-chloro-4-methylphenyl)carbamate], the 50% inhibitory concentration (IC50) was ≤ 100 nM with Hep3B cells; ≤ 100 nM with KG-1 cells; ≤ 100 nM in the data set on NCI-H929 cells; ≤ 100 nM in the data set with Kelly cells; > 5000 nM in data set [2]. Further, the EC50 in data set [1] was > 3160 nM.

In the case of `Cc1ccc(NC(=S)NCc2ccc3cc(C4CCC(=O)NC4=O)c(C)nc3c2)cc1Cl` (stereo not drawn) [Compound 2, 1-(3-chloro-4-methylphenyl)-3-((3-(2,6-dioxopiperidin-3-yl)-2-methylquinolin-7-yl)methyl)thiourea], the IC50 was > 5000 nM with Hep3B cells; 1000 to 5000 nM in the data set on KG-1 cells; > 5000 nM with NCI-H929 cells; 1000 to 5000 nM in the data set on Kelly cells; > 5000 nM in data set [2]. Further, the EC50 in data set [1] was > 3160 nM.

`Cc1ccc(NC(=O)OCc2ccc3cc(C4CCC(=O)NC4=O)c(C)nc3c2)cc1Cl` (stereo not drawn) [Compound 4, (3-(2,6-dioxopiperidin-3-yl)-2-methylquinolin-7-yl)methyl (3-chloro-4-methylphenyl)carbamate]: the “% remaining at 24 hrs” value in data set [3] (concentration 1 μM) was “a (a≥50%)”; in data set [3] (concentration 10 μM), “b (25%≤b<50%)”. In addition, the “t_half [hours]” value in data set [3] (concentration 1 μM) and in data set [3] (concentration 10 μM) was “A (A≥15 hrs)” throughout. The IC50 in the data set on Hep3B cells is ≤ 100 nM; with KG-1 cells, ≤ 100 nM; with NCI-H929 cells it was ≤ 100 nM; in the data set with Kelly cells, ≤ 100 nM; in data set [2] it was > 5000 nM. Also, the EC50 in data set [1] was 316 to 3160 nM.

Take `Cc1nc2cc(COC(=O)Nc3cc(C(F)(F)F)n[nH]3)ccc2cc1C1CCC(=O)NC1=O` (stereo not drawn) [Compound 69, (3-(2,6-dioxopiperidin-3-yl)-2-methylquinolin-7-yl)methyl (3-(trifluoromethyl)-1H-pyrazol-5-yl)carbamate]: the EC50 in data set [1] is 316 to 3160 nM.

For `Cc1nc2cc(COC(=O)Nc3nc(C(C)(C)C)no3)ccc2cc1C1CCC(=O)NC1=O` (stereo not drawn) [Compound 80, (3-(2,6-dioxopiperidin-3-yl)-2-methylquinolin-7-yl)methyl (3-(tert-butyl)-1,2,4-oxadiazol-5-yl)carbamate], the EC50 in data set [1] was 316 to 3160 nM.

Turning to `Cc1ccc(NC(=O)OCc2cc3nc(C)c(C4CCC(=O)NC4=O)cc3cc2F)cc1Cl` (stereo not drawn) [Compound 49, (3-(2,6-dioxopiperidin-3-yl)-6-fluoro-2-methylquinolin-7-yl)methyl (3-chloro-4-methylphenyl)carbamate], the EC50 in data set [1] was 316 to 3160 nM.

Take `Cc1ccc(NC(=O)OCc2ccc3nc(C)c(N4CCC(=O)NC4=O)cc3c2)cc1Cl` [Compound 29, (3-(2,4-dioxotetrahydropyrimidin-1(2H)-yl)-2-methylquinolin-6-yl)methyl (3-chloro-4-methylphenyl)carbamate]: the EC50 in data set [1] was > 3160 nM.

For `Cc1nc2cc(COC(=O)Nc3ccc(N4CCOCC4)nc3)ccc2cc1C1CCC(=O)NC1=O` (stereo not drawn) [Compound 42, (3-(2,6-dioxopiperidin-3-yl)-2-methylquinolin-7-yl)methyl (6-morpholinopyridin-3-yl)carbamate], in data set [1], the EC50 was 316 to 3160 nM.

As to `Cc1nc2cc(COC(=O)Nc3cc(C(C)(C)C)no3)ccc2cc1N1CCC(=O)NC1=O` [Compound 72, (3-(2,4-dioxotetrahydropyrimidin-1(2H)-yl)-2-methylquinolin-7-yl)methyl (3-(tert-butyl)isoxazol-5-yl)carbamate], the EC50 in data set [1] was 316 to 3160 nM.

With `Cc1nc2cc(COC(=O)Nc3cc(Cl)c(C)c(CN4CCOCC4)c3)ccc2cc1C1CCC(=O)NC1=O` (stereo not drawn) [Compound 17, (3-(2,6-dioxopiperidin-3-yl)-2-methylquinolin-7-yl)methyl (3-chloro-4-methyl-5-(morpholinomethyl)phenyl)carbamate], in data set [1], the EC50 is < 316 nM.

`Cc1ccc(NC(=O)OCc2ccc3cc(C4CCC(=O)NC4=O)c(C)nc3c2F)cc1Cl` (stereo not drawn) [Compound 50, (3-(2,6-dioxopiperidin-3-yl)-8-fluoro-2-methylquinolin-7-yl)methyl (3-chloro-4-methylphenyl)carbamate]: in data set [1], the EC50 was 316 to 3160 nM.

With `Cc1ccc(NC(=O)NCc2ccc3nc(C)c(N4CCC(=O)NC4=O)cc3c2)cc1Cl` [Compound 51, 1-(3-chloro-4-methylphenyl)-3-((3-(2,4-dioxotetrahydropyrimidin-1(2H)-yl)-2-methylquinolin-6-yl)methyl)urea], in data set [1], the EC50 is < 316 nM.

`Cc1ccc(NC(=O)NCc2ccc3cc(N4CCC(=O)NC4=O)c(C)nc3c2)cc1Cl` [Compound 27, 1-(3-chloro-4-methylphenyl)-3-((3-(2,4-dioxotetrahydropyrimidin-1(2H)-yl)-2-methylquinolin-7-yl)methyl)urea]: the EC50 in data set [1] was < 316 nM.

As to `Cc1nc2cc(COC(=O)Nc3ccc(Cl)c(Cl)c3)ccc2cc1C1CCC(=O)NC1=O` (stereo not drawn) [Compound 12, (3-(2,6-dioxopiperidin-3-yl)-2-methylquinolin-7-yl)methyl (3,4-dichlorophenyl)carbamate], the EC50 in data set [1] was 316 to 3160 nM.

For the molecule `Cc1nc2cc(COC(=O)Nc3cc(C(C)(C)C)n[nH]3)ccc2cc1C1CCC(=O)NC1=O` (stereo not drawn) [Compound 75, (3-(2,6-dioxopiperidin-3-yl)-2-methylquinolin-7-yl)methyl (3-(tert-butyl)-1H-pyrazol-5-yl)carbamate], in data set [1], the EC50 is 316 to 3160 nM.

For `Cc1ccc(NC(=O)OCc2ccc3cc(C4CCC(=O)NC4=O)c(C)nc3c2)c(Cl)c1Cl` (stereo not drawn) [Compound 54, (3-(2,6-dioxopiperidin-3-yl)-2-methylquinolin-7-yl)methyl (2,3-dichloro-4-methylphenyl)carbamate], in data set [1], the EC50 is 316 to 3160 nM.

For `Cc1ncc(NC(=O)OCc2ccc3cc(C4CCC(=O)NC4=O)c(C)nc3c2)cc1Cl` (stereo not drawn) [Compound 58, (3-(2,6-dioxopiperidin-3-yl)-2-methylquinolin-7-yl)methyl (5-chloro-6-methylpyridin-3-yl)carbamate], the EC50 in data set [1] was 316 to 3160 nM.

Turning to `Cc1ccc(NC(=O)OCc2ccc3cc([C@H]4CCC(=O)NC4=O)c(C)nc3c2)cc1Cl` [Compound 39, (3-(2,6-dioxopiperidin-3-yl)-2-methylquinolin-7-yl)methyl (3-chloro-4-methylphenyl)carbamate], the EC50 in data set [1] was 316 to 3160 nM.

Turning to `Cc1nc2cc(COC(=O)Nc3ccc(-c4ccccc4)nc3)ccc2cc1C1CCC(=O)NC1=O` (stereo not drawn) [Compound 20, (3-(2,6-dioxopiperidin-3-yl)-2-methylquinolin-7-yl)methyl (6-phenylpyridin-3-yl)carbamate], the EC50 in data set [1] was < 316 nM.

Regarding `Cc1nc2cc(COC(=O)Nc3cc(C(C)(C)C)no3)ccc2cc1C1CCC(=O)NC1=O` (stereo not drawn) [Compound 30, (3-(2,6-dioxopiperidin-3-yl)-2-methylquinolin-7-yl)methyl (3-(tert-butyl)isoxazol-5-yl)carbamate], the EC50 in data set [1] was 316 to 3160 nM.

As to `Cc1ccc(NC(=O)OCc2ccc3c(C)c(C4CCC(=O)NC4=O)c(C)nc3c2)cc1Cl` (stereo not drawn) [Compound 44, (3-(2,6-dioxopiperidin-3-yl)-2,4-dimethylquinolin-7-yl)methyl (3-chloro-4-methylphenyl)carbamate], the EC50 in data set [1] is < 316 nM.

With `Cc1ccc(NC(=O)OCc2ccc3cc(C4(F)CCC(=O)NC4=O)c(C)nc3c2)cc1Cl` (stereo not drawn) [Compound 74, (3-(3-fluoro-2,6-dioxopiperidin-3-yl)-2-methylquinolin-7-yl)methyl (3-chloro-4-methylphenyl)carbamate], the EC50 in data set [1] was > 3160 nM.

With `COc1cc(C)c(Cl)cc1NC(=O)OCc1ccc2cc(C3CCC(=O)NC3=O)c(C)nc2c1` (stereo not drawn) [Compound 21, (3-(2,6-dioxopiperidin-3-yl)-2-methylquinolin-7-yl)methyl (5-chloro-2-methoxy-4-methylphenyl)carbamate], in data set [1], the EC50 was 316 to 3160 nM.

The values are drawn from US20260232682A1, “GSPT1 DEGRADER COMPOUNDS” (Captor Therapeutics S.A., priority 2023, published 2026).
